The procedure of the data set:
To test if HS-106 is toxic to mice, two animal studies were initiated. In an acute toxicity study, mice received 80, 20, or 5 mg/kg HS-106 IP on day 1 and 3, and blood was collected on day 4.
In an acute toxicity study, FVB/J mice received 10, 40, or 160 pmol/kg HS-106 via intraperitoneal injection (IP) on days 1 and 3, and blood was collected on day 4. […] To test for the long term effects of HS-106, mice received biweekly IP injections of 10, 20, or 30 pmol/kg HS-106 for eight weeks. […] Next, we carried out pharmacokinetic (PK) studies to determine the uptake and bio-distribution of HS-106 in MMTV-Neu mice by LC-MS (FIG. 17).
Female FVB/J mice aged to 10-12 weeks (Jackson Labs, Maine) were intraperitonealy injected with HS-106 at the described doses twice weekly. Mice were monitored for signs of toxicity by standard Mouse Phase 1 Unit (MP1U; https://www.med.unc.edu/mousephase1) protocols and approved by UNC—CH IACUC. Prior to end of the study 150 μl of whole blood was drawn via submandibular bleed and used to determine hematology values, liver, and kidney functions. To determine the long term effects of HS-106 on mice weight, female FVB/J mice aged 12-16 weeks were treated with the indicated concentrations of HS-106 twice weekly by intraperitoneal injection for 60 days. Mice body mass was assessed weekly and were observed every day for signs of toxicity such as labored breathing and hunched posture.
Female FVB/J mice aged to 10-12 weeks (Jackson Labs, Maine) were intraperitonealy (IP) injected twice weekly with HS-106 at the described doses. Mice were monitored for signs of toxicity by standard Mouse Phase 1 Unit (M1P1U; https://www.med.unc.edu/mousephase1) protocols and approved by UNC—CH IACUC. Prior to end of the study 150 μl of whole blood was drawn via submandibular bleed and used to determine hematology values, liver, and kidney functions by HemaTrue Hematology Analyzer (HESKA, Loveland, Colo., USA) and VITROS® 350 Chemistry System (J&J, New Brunswick, N.J.) according to manufacturer protocols. To determine the long term effects of HS-106 on mice weight, female FVB/J mice aged 12-16 weeks were treated with the indicated concentrations of HS-106 twice weekly by IP injection for 60 days. Mice body mass was assessed weekly, and mice were observed daily for signs of toxicity (e.g. labored breathing and hunched posture).

Each structure is given as a SMILES string. Where two headings read alike, the source gives them in different places.

For the molecule `Cc1sc2ncnc(NC3CCN(Cc4ccccc4)C3)c2c1C` (racemic) [HS-106, N-(1-benzylpyrrolidin-3-yI)-5,6-dimethylthieno[2,3-d]pyrimidin-4-amine], the acute toxicity entry is, setting by setting: (160 pmol/kg IP days 1 and 3) “toxic”; (80 mg/kg IP day 1 and 3) “acutely toxic”. Also, the “acute toxicity, blood parameters” value reads like this: (5 and 20 mg/kg IP day 1 and 3, blood day 4) “did not affect white blood cell count, hemoglobin levels, kidney, or liver function”; (10 and 40 pmol/kg IP days 1 and 3, blood day 4) “well tolerated with no adverse effects on white blood cell counts, hemoglobin levels, kidney, or liver functions”. Moreover, the weight change result (BIW IP injection, assessed weekly) is recorded as “dose not induce weight change”.

For the origin of these results see patent publication US11679111B2, “Fatty acid synthase inhibitors” (priority 2016, dated 2023).
